Among the data in ChEMBL document CHEMBL3352153, “Diastereoselective synthesis of potent antimalarial cis-β-lactam agents through a [2 + 2] cycloaddition of chiral imines with a chiral ketene” (Eur J Med Chem, 2014) are IC50 values, retold here.

For this assay, the system named is Plasmodium falciparum. In words: Antimalarial activity against chloroquine-resistant Plasmodium falciparum K14 infected in human red blood cells after 48 hrs by [3H]hypoxanthine incorporation assay. The format is functional, organism-based.
As for `COc1ccc(N2C(=O)[C@H](O[C@@H]3C[C@H](C)CC[C@H]3C(C)C)[C@@H]2c2ccc(Cl)cc2)cc1`, the IC50 (commonly the concentration that gives 50% inhibition) was above 50 µM.
The molecule `COc1ccc(N2C(=O)[C@@H](O[C@@H]3C[C@H](C)CC[C@H]3C(C)C)[C@H]2c2ccc(Cl)cc2)cc1` displayed an IC50 above 50 µM.
Regarding `C[C@@H](c1ccccc1)N1C(=O)[C@H](Oc2ccccc2)[C@@H]1c1ccc(Cl)cc1`, half-maximal inhibition (IC50) required 42 µM.
`C[C@@H](c1ccccc1)N1C(=O)[C@@H](Oc2ccccc2)[C@H]1c1ccc(Cl)cc1` had an IC50 of 42 µM.
As to `CC(C)[C@@H]1CC[C@@H](C)C[C@H]1O[C@@H]1C(=O)N([C@@H](C)c2ccccc2)[C@@H]1c1ccc(Cl)cc1`, inhibition was half-maximal at 33 µM (IC50).
`CC(C)[C@@H]1CC[C@@H](C)C[C@H]1O[C@@H]1C(=O)N([C@@H](C)c2ccccc2)[C@@H]1c1ccccc1Cl` came in with an IC50 of 36 µM.
`CC(C)[C@@H]1CC[C@@H](C)C[C@H]1O[C@@H]1C(=O)N([C@@H](C)c2ccccc2)[C@@H]1/C=C/c1ccccc1` came in with an IC50 above 50 µM.
For the molecule `COc1ccc([C@@H]2[C@H](O[C@@H]3C[C@H](C)CC[C@H]3C(C)C)C(=O)N2[C@@H](C)c2ccccc2)cc1`, half-maximal inhibition (IC50) was put at 13 µM.
In turn, `COc1cccc([C@@H]2[C@H](O[C@@H]3C[C@H](C)CC[C@H]3C(C)C)C(=O)N2[C@@H](C)c2ccccc2)c1` displayed an IC50 of 8 µM.
For `COc1ccc([C@@H]2[C@H](O[C@@H]3C[C@H](C)CC[C@H]3C(C)C)C(=O)N2[C@@H](C)c2ccccc2)cc1OC`, it took 8 µM to reach half-maximal inhibition (IC50).
As for `Cc1ccc([C@@H]2[C@H](O[C@@H]3C[C@H](C)CC[C@H]3C(C)C)C(=O)N2[C@@H](C)c2ccccc2)cc1`, the midpoint of inhibition, the IC50, lay at 35 µM.
`Cc1cccc([C@@H]2[C@H](O[C@@H]3C[C@H](C)CC[C@H]3C(C)C)C(=O)N2[C@@H](C)c2ccccc2)c1`: half-maximal inhibition (IC50) required 42 µM.
For `CC(C)[C@@H]1CC[C@@H](C)C[C@H]1O[C@@H]1C(=O)N([C@@H](C)c2ccccc2)[C@@H]1c1ccc(F)cc1`, the IC50 came out at 19 µM.
In turn, `CC(C)[C@@H]1CC[C@@H](C)C[C@H]1O[C@@H]1C(=O)N([C@@H](C)c2ccccc2)[C@@H]1c1ccc(Br)cc1` had an IC50 of 11 µM.
As to `CC(C)[C@@H]1CC[C@@H](C)C[C@H]1O[C@@H]1C(=O)N([C@@H](C)c2ccccc2)[C@@H]1c1ccc([N+](=O)[O-])cc1`, the IC50 worked out at 27 µM.
For `CC(C)[C@@H]1CC[C@@H](C)C[C@H]1O[C@@H]1C(=O)N([C@@H](C)c2ccccc2)[C@@H]1c1ccccc1[N+](=O)[O-]`, the IC50 turned out to be 21 µM.
Take `CC(C)[C@@H]1CC[C@@H](C)C[C@H]1O[C@@H]1C(=O)N([C@@H](C)c2ccccc2)[C@@H]1c1ccc2ccccc2c1`: the IC50 worked out at 10 µM.
